The results in this text go back to patent US9480754B2, “Phospholipid ether analogs as cancer-targeting drug vehicles” (Cellectar Biosciences, Inc., priority 2014, dated 2016).

The test system of data set [1] is human RL-251 tumor xenograft. Put plainly: Retention of 131I-CLR1404 by RL-251 tumor xenograft. It counts as in vivo, SCID mouse. To be noted: FIG. 3. The text has this:
FIG. 3. Prolonged retention of ^131I-CLR1404 by human RL-251 tumor xenograft in SCID mouse.
CLR1404 is a PLE. Results obtained in a variety of tumor models indicate that CLR1404 is sequestered and selectively retained by cancer cells and cancer stem cells. […] CLR1404 localizes in both primary and metastatic lesions regardless of anatomic location including those found in lymph nodes. See Examples 3-8.

The nature of data set [2]: CLR1404 tumor selectivity across 60 tumor models. The class given is in vivo, rodent. To be noted: athymic nude (Hsd:Athymic Nude-Foxn1nu or Crl:NU-Foxn1nu), tumor, intravenous; xenograft, orthotopic, transgenic and spontaneous rodent models; read-out: tumor models showing selective uptake and prolonged retention. As to the method:
All described animal studies were performed according to animal protocols approved by the Institutional Animal Care and Use Committee. Female athymic nude mice (Hsd:Athymic Nude-Foxnlnu or Crl:NU-Foxnlnu, Charles River Laboratories) about 4 to 5 weeks of age, 16 to 18 g (n=6), were used for human tumor xenograft studies. Mice were anesthetized with isoflurane and injected subcutaneously with viable tumor cells in 100 μl of Dulbecco's PBS (or, for glioma cells, […] of PBS) into the right flank. Inoculum sizes were 1×10^6 (for renal, ovarian, glioma, pancreatic, prostate, and NSCLC models), […] (for colorectal and uterine models), or 3×10^6 (breast).
Radioiodinated ^124I-CLR1404 was tested in subcutaneous and orthotopic xenografts of 60 different spontaneous, transgenic, human, and rodent malignant cell lines and tumor types. […] Representative examples are of both human (FIG. 5A-5I) and rodent (FIG. 5J-M) tumors.

The test system of data set [3] is non-small cell lung carcinoma (NSCLC). The data set is described as follows: Clinical imaging of advanced NSCLC patients with 131I-CLR1404. It counts as in vivo, human. The settings on record: two patients, injection of <1 mCi 131I-CLR1404, gamma imaging. As to the method: To date, two patients with advanced NSCLC were imaged after an injection of <1 mCi of ^131I-CLR1404. Blood and urine samples were collected at predetermined times, and gamma imaging performed at several time points following administration.
Materials and Methods: Following intravenous injection of iodine-131 labeled CLR1404 (1 mCi/20 μg), patients with advanced NSCLC where scanned at 3, 6, 24, 48, 96 h and at 7 and 11 days on a GE Maxxus dual Head SPECT scanner. Blood and urine samples were collected for pharmacokinetic analysis as well as clinical hematologic, renal, and hepatic bioanalysis.

A further data set has as its system PC-3 (Prostate). Put plainly: Cell viability IC50, PC-3. It counts as cell-based. As to the method: The cell lines were then measured for cell viability and reported as IC50 for each treatment.
The test system of data set [4] is MDA-MB-468 cells. Put plainly: Annexin V/PI flow cytometry, MDA-MB-468. It counts as cell-based. The settings on record: table title 72 hours, text: paclitaxel for 24 hours. As to the method: Debris was eliminated from this analysis.
MDA-MB-468 cells, were also treated with CLR conjugates (CLR1606 and CLR1607) for 72 hours and with geldanamycin (“GEL”) for 48 hours.
CLR conjugates appear to require a longer treatment period with cells to induce cell death.

For data set [5], the system named is MDA-MB-468 cells. Put plainly: Annexin V/PI flow cytometry, MDA-MB-468. It counts as cell-based. The settings on record: 48 hrs. (In general: A flow cytometer gives signals particle by particle.)

A value given as a limit tells only on which side of the number the result lay.

Consider `C[N+](C)(C)CCOP(=O)([O-])OCCCCCCCCCCCCCCCCCCc1ccc(I)cc1` [CLR1404, 18-(p-Iodophenyl)octadecyl phosphocholine], for which, in data set [1], the “time remaining in cancer cells” value is “up to 20 days”. The number of tumor models with selective uptake in data set [2] is > 55. Also, in data set [3], the “tumor uptake and retention in the primary lung tumor” value was “significant tumor uptake and retention”.

A word on the IC50: it is the concentration that inhibits the measured activity by half. In the data set on PC-3 (Prostate), `CC(=O)O[C@H]1C(=O)[C@@]2(C)[C@H]([C@H](OC(=O)c3ccccc3)[C@]3(O)C[C@H](OC(=O)[C@H](O)[C@@H](NC(=O)c4ccccc4)c4ccccc4)C(C)=C1C3(C)C)[C@]1(OC(C)=O)CO[C@@H]1C[C@@H]2O` [Paclitaxel, paclitaxel, reference compound] displayed a concentration for half-maximal inhibition (IC50) of 0.9 nM. The Live in the data set with MDA-MB-468 cells [4] (MDA-MB-468, PTX 100 nM) was 53.8 % of total cells; in the data set with MDA-MB-468 cells [4] (MDA-MB-468, PTX 1 uM) it was 48.9 % of total cells; with MDA-MB-468 cells [5] (MDA-MB-468, 100 nM) it was 77.9 % of total cells; with MDA-MB-468 cells [5] (MDA-MB-468, 1 uM) it was 73.3 % of total cells.
